Results on one compound are retold here after patent publication US12521335B2, “Cosmetic compositions containing vitamin C compounds and uses thereof” (RoC OPCO LLC, priority 2021, dated 2026).

This assay is described as follows: DPPH antioxidant assay. The assay is classed as biochemical. The following applies: for DPPH antioxidant activity percent, Avg ± SEM: from 0.1% v/v stock. An excerpt:
The purpose of this study was to evaluate the overall antioxidant capacity of the serum formula of Example 1B and gel-cream formula of Example 1C for their ability to reduce the free radical 2,2-Diphenyl-1-picrylhydrazyl ([…] and Singh (2011). Genesis and development of DPPH method of antioxidant assay. (See J. Food Sci Technol. 2011 August; 48(4): 412-422.) Ascorbic Acid (Vitamin C) was used as positive antioxidant control in the assay. The testing involved the suppression of optical density (OD) at 530 nm to a degree, which is proportional to an effective antioxidant activity. Test and control agents were stored at recommended storage temperature until use. An initial 0.1, 1 or 10% v/v dilution was prepared for each test formula in ultra-pure grade water or […]® 355. Serial 2-fold dilutions were prepared for each material and mixed with DPPH in ethanol solution. All samples were compared to diluent-only treated samples used as negative antioxidant activity. Optical density changes at 530 nm were evaluated 10 minutes after addition of DPPH to each sample. Average absorbance was calculated and plotted for each sample concentration. Effective antioxidant inhibition activity based on the change of absorbance of blank (diluent-only) sample (no material added). […] The DPPH antioxidant assay method was performed to measure antioxidant capacity of test materials. The free radical, 2,2-Diphenyl-1-picrylhydrazyl (DPPH) was obtained from Cayman Chemical Co. (Cat. No. 14805) and a 0.2 mM (0.0788 mg/mL) solution was prepared with 200-proof ethanol (Acros Organics, Cat No. 61509-0020). The assay consisted in the evaluation of the overall antioxidant capacity of test materials ([…] and Singh, 2011) for the ability to reduce DPPH (purple color), a stable free radical to DPPHH (Diphenylpicrylhydrazine; light yellow color). The testing involved the suppression of optical density (OD) at 517-530 nm to a degree which is proportional to an effective antioxidant activity. The antioxidant capacity of each material was compared to ascorbic acid (vitamin C) used as standard control. An initial 0.1, 1 or 10% v/v dilution was prepared for each test formula in ultra-pure grade water or […]® 355. Two-fold serial dilutions were made from the stock solution samples. Negative control wells only diluent was added. The vehicle/diluent used was ultra-pure grade water (Cayman Chemical, Co.; Cat No. 400000) or […] Corp.; Lot No. 170310UT14). Diluents were stored at room temperature and handled by the research scientist. To prepare the serum stock formulation (0.1, 1, 10% v/v), 1:10, 1:100 or 1:1000 dilutions were prepared using a positive displacement pipette. To prepare the 20% Ascorbic Acid and 0.05% stock formulation, a 1-dram glass screw-top vial container was pre-weighed and material added to the container followed by addition of neat vehicle to make a 200 mg/mL or […] solution, respectively. Two-fold serial dilutions were made from the stock solution samples. […] Vials were sealed and formulations were immediately used for antioxidant assays.

The mark [1] stands for this setting: DPPH antioxidant activity near 100%.

Take `O=C1O[C@H]([C@@H](O)CO)C(O)=C1O` [20% Ascorbic Acid, Ascorbic Acid]: the “DPPH antioxidant activity percent, Avg ± SEM” value is reported as 38 ± 8% (0.001 % v/v); 31 ± 11% (0.002 % v/v); 50 ± 13% (0.003 % v/v); 91 ± 4% (0.006 % v/v); 100 ± 0% (0.013 % v/v); 100 ± 0% (0.025 % v/v). Also, under “0.050 % v/v”, the “DPPH antioxidant activity percent, Avg ± SEM” value is on record as 100 ± 0%. Also, the “Maximum effective Antioxidant Activity: Concentration (% v/v)” value under setting [1] amounted to 0.0125 % v/v. The “Maximum effective Antioxidant Activity: Dilution Factor” value under setting [1] is on record as 8,000.
